The target in assay [1] is T1, human CB2 receptor (hCB2R) (Homo sapiens, UniProt P34972).
T1 construct: expressed in transfected cells; membranes
Nature of the assay: TR-FRET hCB2R binding assay. The note with it: TR-FRET, membranes of SNAP-tagged human CB2R HEK293-TR cells, 100 μM GppNHp, nonspecific binding with SR144528; read-out: Kd hCB2R.

The target in a further assay is hCB1R (Homo sapiens, UniProt P21554). Briefly: hCB1R binding (Kd hCB1R, Table 1).
In assay [2] the target is T2, CB2 receptor (hCB2R), CHO cell line stably overexpressing CB2 receptor (Homo sapiens, UniProt P34972).
T2 construct: expressed in transfected cells; host or cells: CHO cell line stably overexpressing CB2 receptor (G418 selection)
Briefly: cAMP hCB2R functional assay (HTRF). The note with it: CHO cells overexpressing CB2 receptor, forskolin; for EC50: means ± SEM of 2-3 independent experiments; for Functionality: normalized to Emax of CP55940 (100%). It counts as cell-based. How it is done: cAMP hCB2R Functional Assay
The Homogeneous Time Resolved Fluorescence (HTRF) Assays
The homogeneous time-resolved fluorescence (HTRF) cAMP assay was conducted according to the manufacturer's protocol for the cAMP-Gs Dynamic kit (Cisbio). Briefly, the CHO cell line stably overexpressing CB2 receptor were maintained in Ham's F12 supplemented with 10% FBS, 100 U/ml penicillin and 100 μg/ml streptomycin (Gibco-ThermoFisher) and 400 μg/ml G418 (ThermoFisher). For CB2 compounds test, harvest the cells with Cell Dissociation Buffer and re-suspend the cells in F-12 K at 0.4*10^6 cells/mL, and dispense cells into 384-well low volume plates at 2000 cells/5 μL per well. The cells were stimulated with compounds diluted in Stimulation Buffer (2.5 μL/well) for 15 min at room temperature. And then followed by the addition of 2.5 μL 25 μM forsklin. After 15 mins incubation, reactions were stopped by 5 μL/well cAMP-d2 conjugate working solution followed by 5 μL/well of anti-cAMP cryptate working solution. After incubation for 1 h at room temperature, the plates were read in a PerkinElmer Envision reader for time-resolved fluorescence resonance energy transfer detection at 620 nm and 665 nm.
Quantification and Statistical Analysis
All HTRF ratio data sets of test compounds were normalized to the Emax of CP55940 (100%) and obtained the means±standard error of the mean (SEM) of 2-3 independent experiments performed in technical replicates.

What is called Kd is the equilibrium constant for the complex coming apart. What is called EC50 is the midpoint of the concentration-response curve. The low end stands for a more potent agent, the high end for a less potent agent.

T1 sequence (P34972 whole entry): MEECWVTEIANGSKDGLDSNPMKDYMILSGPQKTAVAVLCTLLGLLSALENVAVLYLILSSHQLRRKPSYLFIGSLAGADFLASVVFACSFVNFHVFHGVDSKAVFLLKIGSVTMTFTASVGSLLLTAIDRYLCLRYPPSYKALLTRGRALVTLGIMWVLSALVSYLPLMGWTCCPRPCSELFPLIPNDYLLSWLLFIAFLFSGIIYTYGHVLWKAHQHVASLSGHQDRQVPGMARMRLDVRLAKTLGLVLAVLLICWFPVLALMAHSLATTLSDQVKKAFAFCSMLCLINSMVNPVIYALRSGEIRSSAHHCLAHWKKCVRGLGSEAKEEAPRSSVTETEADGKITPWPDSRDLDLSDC
T2 sequence (P34972 whole entry): as above
hCB1R, sequence (P21554 whole entry): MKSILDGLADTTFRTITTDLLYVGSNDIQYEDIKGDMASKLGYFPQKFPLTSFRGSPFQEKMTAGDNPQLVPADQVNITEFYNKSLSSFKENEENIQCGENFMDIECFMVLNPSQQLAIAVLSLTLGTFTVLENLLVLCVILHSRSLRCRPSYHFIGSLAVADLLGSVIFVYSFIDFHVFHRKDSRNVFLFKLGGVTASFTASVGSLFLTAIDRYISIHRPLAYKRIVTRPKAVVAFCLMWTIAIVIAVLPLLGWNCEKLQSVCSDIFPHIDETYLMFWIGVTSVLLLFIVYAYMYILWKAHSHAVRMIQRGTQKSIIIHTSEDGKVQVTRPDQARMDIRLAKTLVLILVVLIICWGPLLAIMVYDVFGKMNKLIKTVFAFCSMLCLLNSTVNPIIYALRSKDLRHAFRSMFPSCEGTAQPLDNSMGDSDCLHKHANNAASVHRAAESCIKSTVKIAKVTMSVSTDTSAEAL

As to `CCCCC[C@H](C(F)(F)F)C(C)(C)c1cc(OC)c([C@H]2C=C(CO)[C@H]3C[C@@H]2C3(C)C)c(OC)c1` [Example 2, ((1S,4S,5S)-4-(2,6-dimethoxy-4-((S)-2-methyl-3-(trifluoromethyl)octan-2-yl)phenyl)-6,6-dimethylbicyclo[3.1.1]hept-2-en-2-yl)methanol], the Kd in assay [1] worked out at 9.9 nM. The compound further came in with a dissociation constant Kd at hCB1R of 6530 nM. For the same compound, in assay [2], the EC50 was 11.7 nM and the Functionality entry is on record as “agonist”.

For the compound `CCN(CC)c1ccc2cc(/C=C/c3ccc(S(=O)(=O)[O-])c[n+]3CCCCCC(=O)NCC3=C[C@H](c4c(OC)cc(C(C)(C)[C@H](CCCCCN=[N+]=[N-])c5ccccc5)cc4OC)[C@@H]4C[C@H]3C4(C)C)c(=O)oc2c1` [Example 22, 1-(6-((((1S,4S,5S)-4-(4-((R)-8-azido-2-methyl-3-phenyloctan-2-yl)-2,6-dimethoxyphenyl)-6,6-dimethylbicyclo[3.1.1]hept-2-en-2-yl)methyl)amino)-6-oxohexyl)-6-((E)-2-(7-(diethylamino)-2-oxo-2H-chromen-3-yl)vinyl)pyridin-1-ium-3-sulfonate], the figures for the Kd (in assay [1]; at hCB1R) were 10.2 nM and 1740 nM, respectively. The compound further showed a half-maximal effective concentration (EC50) in assay [2] of 70.8 nM. For the same compound, in assay [2], the Functionality result is given as “inverse agonist”.

For the compound `CCCCCC(CC)C(C)(C)c1cc(OC)c([C@H]2C=C(CO)[C@H]3C[C@@H]2C3(C)C)c(OC)c1` (stereo partly drawn) [Example 3, ((1S,4S,5S)-4-(4-(3-ethyl-2-methyloctan-2-yl)-2,6-dimethoxyphenyl)-6,6-dimethylbicyclo[3.1.1]hept-2-en-2-yl)methanol], the Kd in assay [1] amounted to 0.56 nM. In addition, the Kd on hCB1R turned out to be 13000 nM. In assay [2], the concentration giving a half-maximal response (EC50) was 100 nM and the Functionality result was “partial agonist”.

For `CCCCC[C@@H](c1ccc(F)cc1)C(C)(C)c1cc(OC)c([C@H]2C=C(CO)[C@H]3C[C@@H]2C3(C)C)c(OC)c1` [Example 10, ((1S,4S,5S)-4-(4-((S)-3-(4-fluorophenyl)-2-methyloctan-2-yl)-2,6-dimethoxyphenyl)-6,6-dimethylbicyclo[3.1.1]hept-2-en-2-yl)methanol], the results for the Kd (in assay [1]; at hCB1R) were 301 nM and 1790 nM, respectively. In addition, the Functionality result in assay [2] is recorded as “antagonist”.

With `CCCCCC(C(C)C)C(C)(C)c1cc(OC)c([C@H]2C=C(CO)[C@H]3C[C@@H]2C3(C)C)c(OC)c1` (stereo partly drawn) [Example 6, ((1S,4S,5S)-4-(4-(3-isopropyl-2-methyloctan-2-yl)-2,6-dimethoxyphenyl)-6,6-dimethylbicyclo[3.1.1]hept-2-en-2-yl)methanol], the dissociation constant Kd was determined as 6.1 nM in assay [1] and 7040 nM at hCB1R. Moreover, the Functionality entry in assay [2] is listed as “antagonist”.
